Structures are written as SMILES.

The first assay addresses T1, hDGAT1 (Homo sapiens, UniProt O75907).
T1 sequence (O75907 1-488): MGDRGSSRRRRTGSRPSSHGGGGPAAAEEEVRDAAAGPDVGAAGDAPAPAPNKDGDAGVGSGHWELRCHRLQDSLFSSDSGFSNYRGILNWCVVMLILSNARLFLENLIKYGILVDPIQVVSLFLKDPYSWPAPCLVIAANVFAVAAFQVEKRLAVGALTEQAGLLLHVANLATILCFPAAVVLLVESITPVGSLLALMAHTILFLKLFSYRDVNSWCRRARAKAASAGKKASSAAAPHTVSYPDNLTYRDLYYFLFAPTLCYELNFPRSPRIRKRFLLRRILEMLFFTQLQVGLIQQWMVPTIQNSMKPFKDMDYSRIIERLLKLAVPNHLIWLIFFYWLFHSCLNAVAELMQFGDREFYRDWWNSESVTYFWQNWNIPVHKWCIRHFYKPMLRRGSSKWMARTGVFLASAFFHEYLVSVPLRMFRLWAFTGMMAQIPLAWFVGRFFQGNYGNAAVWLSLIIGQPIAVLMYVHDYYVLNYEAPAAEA
The assay can be described thus: In-vitro DGAT1 assay (14C oleoyl CoA, hDGAT1 microsomes from Sf9 cells). The following applies: at 1 μM.
As to `O=C(Nc1ccc(-c2ccc3c(c2)C(=O)N([C@@H]2CCC[C@@H]2C(=O)O)C3)cc1)c1ccc(C(F)(F)F)cc1` [Example 598, (1S,2R)-2-(1-Oxo-6-(4-(4-(trifluoromethyl)benzamido)phenyl)isoindolin-2-yl)cyclopentanebcarboxylic acid], the “% Inhibition of hDGAT1” value was “++ (>50% Inhibition)”.

Staying with this assay, now noted: read-out: % Inhibition of hDGAT1.
One may read the inhibition as the percentage by which the read-out fell short of the control. As to `CC(C)[C@@H](C(=O)O)N1Cc2ccc(-c3ccc(NC(=O)Nc4ccccc4F)cc3)cc2C1=O` [Example 12, (S)-2-(6-(4-(3-(2-Fluorophenyl)ureido)phenyl)-1-oxoisoindolin-2-yl)-3-methyl butanoic acid], the inhibition at 1 µM fell in the range of 10 to 50%.

Turning to `O=C(Nc1ccc(-c2ccc3c(c2)C(=O)N([C@@H]2CCC[C@@H]2C(=O)O)C3)cc1)c1ccc(Cl)cc1` [Example 596, (1S,2R)-2-(6-(4-(4-Chlorobenzamido)phenyl)-1-oxoisoindolin-2-yl)cyclopentane carboxylic acid], the inhibition at 1 µM was > 50%. Same read-out and setting: for `CC(C)[C@@H](C(=O)O)N1Cc2cc(-c3ccc(NS(=O)(=O)c4ccc(F)c(F)c4)cc3)ccc2C1=O` [Example 289, (S)-2-(5-(4-(3,4-Difluorophenylsulfonamido)phenyl)-1-oxoisoindolin-2-yl)-3-methylbutanoic acid] the value was 10 to 50%. The same measure, in the same setting: for `O=C(O)CCCN1Cc2ccc(-c3ccc(NC(=O)Nc4cccc(C(F)(F)F)c4)cc3)cc2C1=O` [Example 349, 4-(1-Oxo-6-(4-(3-(3-(trifluoromethyl)phenyl)ureido)phenyl)isoindolin-2-yl)butanoic acid] the value was 10 to 50%; for `Cc1ccc(NC(=O)Nc2ccc(-c3ccc4c(c3)C(=O)N([C@H](C(=O)O)C(C)C)C4)c(C(F)(F)F)c2)cc1C` [Example 422, (S)-2-(6-(4-(3-(3,4-Dimethylphenyl)ureido)-2-(trifluoromethyl)phenyl)-1-oxoisoindolin-2-yl)-3-methylbutanoic acid], 10 to 50%. On the same count and under the same terms, for `COc1ccc(S(=O)(=O)Nc2ccc(-c3ccc4c(c3)CN([C@H](C(=O)O)C(C)C)C4=O)cc2)cc1OC` [Example 293, (S)-2-(5-(4-(3,4-Dimethoxyphenylsulfonamido)phenyl)-1-oxoisoindolin-2-yl)-3-methylbutanoic acid] the value was 10 to 50%; for `COc1cccc(NC(=O)Nc2ccc(-c3ccc4c(c3)C(=O)N([C@H](C(=O)O)C(C)C)C4)cc2)c1` [Example 26, (S)-2-(6-(4-(3-(3-Methoxyphenyl)ureido)phenyl)-1-oxoisoindolin-2-yl)-3-methyl butanoic acid], 10 to 50%.

Consider `CC(C)[C@@H](C(=O)O)N1Cc2ccc(-c3ccc(NC(=O)c4nnc(-c5ccccc5)[nH]4)cc3)cc2C1=O` [Example 629, (S)-3-Methyl-2-(1-oxo-6-(4-(5-phenyl-4H-1,2,4-triazole-3-carboxamido)phenyl)isoindolin-2-yl)butanoic acid], for which the inhibition at 1 µM is 10 to 50%. On the same count and under the same terms, for `CC(C)[C@@H](C(=O)O)N1Cc2ccc(-c3ccc(NC(=O)c4cccc(C(F)(F)F)c4F)cc3)cc2C1=O` [Example 194, (S)-2-(6-(4-(2-Fluoro-3-(trifluoromethyl)benzamido)phenyl)-1-oxoisoindolin-2-yl)-3-methylbutanoic acid] the value was 10 to 50%; for `CC(C)[C@@H](C(=O)O)N1Cc2ccc(-c3ccc(NC(=O)c4ccc(-c5cnco5)cc4)cc3)cc2C1=O` [Example 622, (S)-3-Methyl-2-(6-(4-(4-(oxazol-5-yl)benzamido)phenyl)-1-oxoisoindolin-2-yl)butanoic acid], > 50%. For `CC(C)[C@@H](C(=O)O)N1Cc2ccc(-c3ccc(NC(=O)c4ncc(-c5ccccc5)o4)cc3)cc2C1=O` [Example 614, (S)-3-Methyl-2-(1-oxo-6-(4-(5-phenyloxazole-2-carboxamido)phenyl)isoindolin-2-yl)butanoic acid], the inhibition at 1 µM is > 50%. On the same count and under the same terms, for `CC(C)[C@@H](C(=O)O)N1Cc2ccc(-c3ccc(NC(=O)Nc4ccc(C#N)cc4)cc3)cc2C1=O` [Example 40, (S)-2-(6-(4-(3-(4-Cyanophenyl)ureido)phenyl)-1-oxoisoindolin-2-yl)-3-methyl butanoic acid] the value was > 50%. As for `CC(C)[C@@H](C(=O)O)N1Cc2cc(-c3ccc(NC(=O)Nc4ccccc4F)cc3)ccc2C1=O` [Example 227, (S)-2-(5-(4-(3-(2-Fluorophenyl)ureido)phenyl)-1-oxoisoindolin-2-yl)-3-methyl butanoic acid], the inhibition at 1 µM is > 50%. Turning to `CC(C)[C@@H](C(=O)O)N1Cc2ccc(-c3ccc(NC(=O)Nc4ccc(Cl)cc4Oc4ccccc4)cn3)cc2C1=O` [Example 396, (S)-2-(6-(5-(3-(4-Chloro-2-phenoxyphenyl)ureido)pyridin-2-yl)-1-oxoisoindolin-2-yl)-3-methylbutanoic acid], the inhibition at 1 µM is > 50%. Same read-out and setting: for `CC(C)[C@@H](C(=O)O)N1Cc2ccc(-c3ccc(NC(=O)c4nnc(-c5ccccc5)s4)cc3)cc2C1=O` [Example 627, (S)-3-Methyl-2-(1-oxo-6-(4-(5-phenyl-1,3,4-thiadiazole-2-carboxamido)phenyl)isoindolin-2-yl)butanoic acid] the value was > 50%; for `CC(C)C[C@@H](C(=O)O)N1Cc2ccc(-c3ccc(NC(=O)Nc4cccc(C(F)(F)F)c4)cc3)cc2C1=O` [Example 352, (S)-4-Methyl-2-(1-oxo-6-(4-(3-(3-(trifluoromethyl)phenyl)ureido)phenyl)isoindolin-2-yl)pentanoic acid], 10 to 50%. In the case of `O=C(Nc1ccc(-c2ccc3c(c2)CN([C@@H](Cc2ccccc2)C(=O)O)C3=O)cc1)Nc1cccc(C(F)(F)F)c1` [Example 382, (S)-2-(1-Oxo-5-(4-(3-(3-(trifluoromethyl)phenyl)ureido)phenyl)isoindolin-2-yl)-3-phenylpropanoic acid], the inhibition at 1 µM lay in the range of 10 to 50%. Same read-out and setting: for `COc1ccc(C(=O)Nc2ccc(-c3ccc4c(c3)C(=O)N([C@H](C(=O)O)C(C)C)C4)cc2)cc1` [Example 104, (S)-2-(6-(4-(4-Methoxybenzamido)phenyl)-1-oxoisoindolin-2-yl)-3-methyl butanoic acid] the value was > 50%; for `Cc1oc(-c2ccccc2)nc1C(=O)Nc1ccc(-c2ccc3c(c2)C(=O)N([C@H](C(=O)O)C(C)C)C3)nc1` [Example 655, (S)-3-Methyl-2-(6-(5-(5-methyl-2-phenyloxazole-4-carboxamido)pyridin-2-yl)-1-oxoisoindolin-2-yl)butanoic acid], > 50%; for `O=C(Nc1ccc(-c2ccc3c(c2)C(=O)N(C2(C(=O)O)CC2)C3)cc1)c1ccc(Cl)cc1` [Example 588, 1-(6-(4-(4-Chlorobenzamido)phenyl)-1-oxoisoindolin-2-yl)cyclopropane carboxylic acid], > 50%.

For `CC(C)[C@@H](C(=O)O)N1Cc2cc(-c3ccc(NC(=O)Nc4cccc(F)c4)cc3)ccc2C1=O` [Example 229, (S)-2-(5-(4-(3-(3-Fluorophenyl)ureido)phenyl)-1-oxoisoindolin-2-yl)-3-methyl butanoic acid], the inhibition at 1 µM was > 50%. With `CC(C)[C@@H](C(=O)O)N1Cc2cc(-c3ccc(NC(=O)Nc4ccc(F)cc4)cc3)ccc2C1=O` [Example 225, (S)-2-(5-(4-(3-(4-Fluorophenyl)ureido)phenyl)-1-oxoisoindolin-2-yl)-3-methylbutanoic acid], the inhibition at 1 µM is > 50%.

`O=C(Nc1ccc(-c2ccc3c(c2)C(=O)N(C2(C(=O)O)CCCC2)C3)cc1)c1ccc(Cl)cc1` [Example 533, 1-(6-(4-(4-Chlorobenzamido)phenyl)-1-oxoisoindolin-2-yl)cyclopentane carboxylic acid]: the inhibition at 1 µM was > 50%.

On to `CC(C)[C@@H](C(=O)O)N1Cc2cc(-c3ccc(NS(=O)(=O)C4CCCCC4)cc3)ccc2C1=O` [Example 303, (S)-2-(5-(4-(Cyclohexanesulfonamido)phenyl)-1-oxoisoindolin-2-yl)-3-methylbutanoic acid], for which the inhibition at 1 µM was in the range of 10 to 50%. As for `Cc1ccc(NC(=S)Nc2ccc(-c3ccc4c(c3)CN([C@H](C(=O)O)C(C)C)C4=O)cc2)cc1` [Example 275, (S)-3-Methyl-2-(1-oxo-5-(4-(3-p-tolylthioureido)phenyl)isoindolin-2-yl)butanoic acid], the inhibition at 1 µM lay within 10 to 50%. In the case of `CC(C)[C@@H](C(=O)O)N1Cc2ccc(-c3ccc(NC(=S)Nc4ccc(C#N)cc4)cc3)cc2C1=O` [Example 68, (S)-2-(6-(4-(3-(4-Cyanophenyl)thioureido)phenyl)-1-oxoisoindolin-2-yl)-3-methyl butanoic acid], the inhibition at 1 µM was > 50%. Regarding `CC(C)[C@@H](C(=O)O)N1Cc2ccc(-c3ccc(NC(=O)c4ccc(C(F)(F)F)c(F)c4)cc3)cc2C1=O` [Example 196, (S)-2-(6-(4-(3-Fluoro-4-(trifluoromethyl)benzamido)phenyl)-1-oxoisoindolin-2-yl)-3-methylbutanoic acid], the inhibition at 1 µM was > 50%.

Regarding `Cc1oc(-c2ccccc2)nc1C(=O)Nc1ccc(-c2ccc3c(c2)C(=O)N([C@H](C(=O)O)C(C)C)C3)cc1` [Example 643, (S)-3-Methyl-2-(6-(4-(5-methyl-2-phenyloxazole-4-carboxamido)phenyl)-1-oxoisoindolin-2-yl)butanoic acid], the inhibition at 1 µM was > 50%. `CC(C)[C@@H](C(=O)O)N1Cc2ccc(-c3ccc(NC(=O)c4ccccc4C(F)(F)F)cc3)cc2C1=O` [Example 200, (S)-3-Methyl-2-(1-oxo-6-(4-(2-(trifluoromethyl)benzamido)phenyl)isoindolin-2-yl)butanoic acid]: the inhibition at 1 µM lay within 10 to 50%.

These data come from US8748426B2, “Inhibitors of diacylglycerol acyl transferase” (Piramal Enterprises Limited, priority 2009, dated 2014).
